# What was measured:
# [1] = system: 4T1 cells; assay: Chemokine level in supernatant of 4T1 cells; format: cell-based, mouse; conditions: in vitro, 1 μM
# [2] = system: HeLa, A549 and MDA-MB-231 cell lines; assay: Cytotoxicity, propidium iodide cell death ratio; format: cell-based; conditions: 24 h or 48 h
# Experimental: The inventors also test the cytotoxicity of 6J1 in several cancer cell lines, HeLa, A549 and MDA-MB-231 cell lines. Cells are grown in 96-well plates in triplicate and treated with or without 6J1 at the concentrations of 0, 0.01, 0.1, 1, 10 and 100 μM indicated for 24 h or 48 h. They are then stained with propidium iodide (PI) or Hochest 33342 to measure the cell death ratio and cell number, respectively. […] Inventors also test the cytotoxicity of 6J1 in 4T1 cells. 4T1 cells are plated in 96-well plates in triplicate and treated with or without 6J1 at the concentrations of 0, 0.01, 0.1, 1, 5, 10, 20, 40, 80 and 100 μM indicated for 24 h or 48 h. The cell viability was then quantified via the MTT assay.
# [3] = system: PD-L1; assay: Western blot of PD-L1 in exosomes of 4T1 cells; format: cell-based, mouse; conditions: 1 μM
# Experimental: The current PD-L1 and PD1 therapies apply PD-L1 or PD1 monoclonal antibodies to block the PD-L1/PD1 signaling, which results in cytotoxic T cells recognizing and killing the tumor cells. […] First, flow cytometry-based quantification of plasma membrane levels of PD-L1 in 4T1 cells treated with or without 6J1 (1 μM) for 24 h. 4T1 cells are treated with or without 6J1 (1 μM) for 24 h. The supernatant is collected, and the concentration of extracellular vesicle is determined using a Nanosight nanoparticle analyzer in FIG. 8b. The exosomes are also collected and subjected to western blot analysis of the EVs marker and PD-L1 in FIG. 8c.
# Therefore, it is possible that the increased exosomal PD-L1 secretion induced by 6J1 may still suppress the tumor-infiltrating T cell cytotoxicity in vivo, even though 6J1 reduces the cell surface expression level of PD-L1 on the tumor cells. To evaluate the role of exosomal PD-L1 in the tumor microenvironment and tumor progression in mice, inventors knock out Rab27a in 4T1 cells to inhibit the secretion of exosomes. 4T1-shNC or 4T1-shRab27A cells are treated with or without 6J1 (1 μM). The supernatant is collected, and the concentration of extracellular vesicle is determined using a Nanosight nanoparticle analyzer. […] Inventors analyze the plasma membrane levels of PD-L1 in 4T1-shNC or 4T1-shRab27A cells treated with or without 6J1 (1 μM). […]
# [4] = system: PD-L1-knockout 4T1 cells; assay: PD-L1-knockout 4T1 tumors in Balb/c mice; format: in vivo, mouse; conditions: 30 mg/kg, daily, oral gavage
# Experimental: To assess whether the in vivo antitumor growth effect of 6J1 is related to its effect on PD-L1 in 4T1 cells, inventors knock out PD-L1 via CRISPR/Cas9 in 4T1 cells (FIG. 10a). 4T1-NC or 4T1-PD-L1 knockout cells are treated with or without 6J1 (1 μM) for 24 h. The supernatant is collected, and the concentration of extracellular vesicle is determined using a Nanosight nanoparticle analyzer. The exosomes are also collected and subjected to western blot analysis of the EVs marker and PD-L1. […] Inventors then transplant control or PD-L1-knockout 4T1 cells into the fat pad of syngeneic female Balb/c mice. The mice are randomly divided (n=5 per group) and treated with either buffer or 6J1 (30 mg/kg, daily) via oral gavage.
# [5] = Oral bioavailability (stated, no method); conditions: in vivo
# [6] = system: HeLa cells; assay: DQ-BSA endocytic trafficking assay; format: cell-based; conditions: 1 μM, 3 h then 6 h with 10 μg/ml DQ-green BSA, flow cytometry
# Experimental: A DQ-BSA endocytic trafficking assay screens these compounds. DQ-BSA, a self-quenching dye, is internalized into the cytoplasm by endocytosis, after which it is delivered to the lysosomes for degradation to relieve fluorescence-quenching, resulting in bright fluorescence in cells. HeLa cells are plated on 6-well plates and treated with the indicated compound for 3 h. Then, cells are replaced with Trafficking media containing 10 μg/ml DQ-green BSA with or without drugs (1 μM) and incubated at 37° C. in a 5% CO2 humidified cell culture chamber another 6 h followed by Flow cytometry analysis. […] Inventors also test whether these hit compounds can inhibit the recycling endosomal pathway by performing the fluorescent transferrin conjugates recycling assay. Iron-bound transferrin interacts with its receptor (TfR) to trigger the internalization of the iron-transferrin-TfR complex via clathrin-mediated endocytosis. Fe^3+ irons are subsequently dissociated from their ligands in the acidic endosome environment and released into the cytoplasm. […] Thus, the fluorescence intensity of fluorescent transferrin conjugates-labeled cells can reflect the recycling endocytic trafficking process. […] Cells are collected for flow cytometry analysis, and the mean fluorescence intensity of transferrin is quantified.
smiles,measurement,setting,value
OCCOCCN(c1ccccc1)c1nc(N/N=C/c2cccc(I)c2)nc(N2CCOCC2)n1 [Compound 6J1],secretion of various chemokines from 4T1 cells,[1],markedly induces the secretion of various chemokines
same,cell death,[2]; 0.01-100 μM,induces cell death in a concentration-dependent manner
same,cell death at effective concentrations,[2]; ≤1 μM,hardly induces any cell death
same,6J1-induced exosomal PD-L1 levels,[3]; 4T1-shRab27A cells,significantly inhibits
same,secretion of PD-L1 in exosomes,"[3]; 4T1 cells, 24 h",induces the secretion of PD-L1 in exosomes
same,tumor growth in mice implanted with PD-L1-knockout 4T1 cells,[4],fails to decrease further tumor growth
same,oral bioavailability,[5],good oral bioavailability
same,endocytic trafficking (fluorescence intensity of DQ-BSA-labeled cells),[6],dramatically inhibit endocytic trafficking

# Reference: patent publication US11986482B2, “Method of promoting antitumor or anti-cancer immunity” (City University of Hong Kong, priority 2021, dated 2024)
